Tested on: MLD-STZ-induced diabetes in male C57BL/6J mice
Assay: Diabetes induction after multiple low dose (MLD)-streptozotocin (STZ) injections
Format: in vivo, mouse
Details: for glycemic levels after development of diabetes vs control mice / time to develop the disease compared to controls: mice injected with STZ, summary statement
Procedure: Injection of susceptible mice strains with multiple low doses of (STZ) provokes a condition with clinical and histoimmunological features similar to human Type 1 diabetes mellitus (DM). It has been established that five daily doses of 40 mg/kg/day of STZ are required for delayed onset, sustained and progressive hyperglycemia and insulitis in male C57BL/6 mice.
This model was previously used to study the role of proinflammatory cytokines in the development of Type 1 diabetes. 12 male C57BL/6J mice received MLD-STZ treatment. STZ was injected i.p. at a dose of 40 mg/kg/day, for 5 consecutive days. Glucose concentrations in venous blood was measured every day starting from the first day of treatment. Mice with glycemia over 250 mg/dl on three consecutive tests were considered diabetic, with the first detection of hyperglycemia taken as the date of diabetes onset. The mice were monitored for up to 60 days post first STZ injection. Reparixin was administered by s.c. continuous infusion starting from day −1 up to day 7 after first STZ injection at a dose of 8 mg/h/kg.
Male C57BL/6J mice were injected i.p. with (ML)-streptozotocin (STZ) at a dose of 40 mg/kg/day, for 5 consecutive days. Glucose concentrations in venous blood were measured every day starting from the first day of treatment (day 0). Mice with glycaemia over 250 mg/dl on three consecutive tests were considered diabetic, with the first detection of hyperglycemia taken as the date of diabetes onset. The mice were followed for up to 60 days post first STZ injection. Meraxin was administered per os at a dose of 15 mg/kg for 7 or 14 days, starting from day −1 of first STZ injection.
In a second set of experiments, the treatment with Meraxin for 14 days was started +5 (n=4) days after the first STZ injection to mimic the clinical setting of diabetes onset.

| SMILES | diabetes onset (Meraxin for 14 days started day +5 after first STZ injection (up to day 19), n=4) | glycaemic levels vs vehicle-treated mice (Meraxin for 14 days started day +5 after first STZ injection, whole 2-month observation period) | median diabetes-free time (Meraxin per os 15 mg/kg for 7 days starting from day -1, n=8, p=0.67 vs ctrl) | median diabetes-free time (Meraxin per os 15 mg/kg for 14 days starting from day -1, n=8, p=0.016 vs ctrl) | glycemic levels after development of diabetes vs control mice | time to develop the disease compared to controls | glycaemia levels after diabetes development vs vehicle-treated group (Reparixin s.c. continuous infusion 8 mg/h/kg day -1 to day 7, whole two-month observation period) | median diabetes free time (Reparixin s.c. continuous infusion 8 mg/h/kg from day -1 up to day 7 after first STZ injection, n=8, p=0.026 vs ctrl) [days] |
| --- | --- | --- | --- | --- | --- | --- | --- | --- |
| C[C@@H](C(=O)NS(C)(=O)=O)c1ccc(OS(=O)(=O)C(F)(F)F)cc1 [Meraxin, R(-)-2-[(4′-trifluoromethanesulfonyloxy)phenyl]propionyl-methanesulfonamide] | clearly prevented diabetes onset | constantly and significantly lower | 13+2.8 days | 29+16 | significantly lower | more than double the time |  |  |
| CC(C)Cc1ccc([C@@H](C)C(=O)NS(C)(=O)=O)cc1 [Reparixin, R(-)-2-[(4-isobutylphenyl)propionyl]-methanesulfonamide] |  |  |  |  | significantly lower | more than double the time | constantly and significantly lower | 27 ± 15 |
